# Legend:
# [1] = system: HCE cells (human corneal epithelial cells); test: Suppressive effect on cell injury under hyperosmotic conditions (MTT method); assay type: cell-based; conditions: 24 hours, hyperosmotic medium with 150 mM NaCl and 160 mM NaCl, or 320 mM glucose, FIG. 1 to FIG. 3
# Procedure: HCE cells (human corneal epithelial cells) were cultured for 24 hours in a hyperosmotic medium containing a compound of Formula (1aa) (hereinafter, Compound (1aa)) (as a hydrate). The medium was adjusted to fulfill the hyperosmotic conditions using 150 mM NaCl and 160 mM NaCl, or 320 mM glucose. The number of live cells was measured by the MTT method, and relative values of light absorbance with respect to the light absorbance of the control (isotonic pressure conditions) were calculated. The value is expressed as average value±S.D. (n=3), **P<0.01.
# [2] = system: HCE cells (human corneal epithelial cells); test: Suppressive effect on cell injury caused by ethanol (MTT method); assay type: cell-based; conditions: 4 v/v % ethanol, FIG. 4
# Procedure: HCE cells (human corneal epithelial cells) were cultured in a medium containing Compound (1aa) and 4 v/v % ethanol. The number of live cells was measured by the MTT method, and relative values of light absorbance with respect to the light absorbance of the control (absence of ethanol) were calculated. The value is expressed as average value±S.D. (n=3), *P<0.05; and **P<0.01.
# HCE cells = test: Suppressive effect on apoptosis under hyperosmotic conditions (caspase-3-like activity, fluorescent peptide substrate); assay type: cell-based, human; conditions: 160 mM NaCl, 3 hours and 6 hours, FIG. 5
# Procedure: HCE cells were cultured in a hyperosmotic medium containing Compound (1aa) and 160 mM NaCl. After culturing for 3 hours and 6 hours, caspase-3-like activity, which is a marker for apoptosis, was measured using a fluorescent peptide substrate, and the results are presented in FIG. 5. The value is expressed as average value±S.D. (triplicate), **P<0.01, and the term n.s. means “not significant”.
# dry eye model rat = test: Therapeutic effect on corneal surface injury in dry eye model rat (lacrimal glands removed); assay type: in vivo; conditions: 5 μL of aqueous solution 0.05 w/v % (1.5 mM) three times a day, 1 to 5 weeks after removal of lacrimal glands
# Procedure: The lacrimal glands of a rat were removed, and a dry eye model was produced. After 1 to 5 weeks from the removal of lacrimal glands, 5 μL of an aqueous solution containing Compound (1aa) (0.05 w/v %, 1.5 mM) was administered to the rat three times a day. The value is expressed as average value±S.E.M., *P<0.05; and **P<0.01.
# [3] = system: muc1 and muc16 messenger RNAs in HCE cells; test: Change in amount of expression of mucin messenger RNA (real time RT-PCR); assay type: cell-based, human; conditions: 3 hours and 24 hours, FIG. 8
# Procedure: HCE cells were cultured in a medium containing Compound (1aa). The amounts of expression of muc1 and muc16 messenger RNAs after culturing for 3 hours and 24 hours were measured by a real time RT-PCR method. Relative values of the amount of expression with respect to the amount of expression of actin messenger RNA were calculated, and the results are presented in FIG. 8. The value is expressed as average value±S.D. (triplicate), *P<0.05; and **P<0.01.
structure (smiles),measurement,setting,value
"O=C1NCC2=C1[C@@H](c1ccccc1)N(C(=O)CO)[C@@H]1CCCC[C@H]1N2 [Compound (1aa), (1R,8R,10R)-9-(2-hydroxyacetyl)-8-phenyl-2,5,9-triazatricyclo[8.4.0.0^3,7]tetradeca-3(7)-en-6-one]","survival rate of corneal epithelial cells under hyperosmotic conditions (number of live cells, relative light absorbance vs control)",[1],noticeably suppressed the decrease in the survival rate of corneal epithelial cells
same,"survival rate of corneal epithelial cells with ethanol (number of live cells, relative light absorbance vs control)",[2],noticeably suppressed the decrease in the survival rate of corneal epithelial cells
same,hyperosmotic stress-dependent apoptosis (caspase-3-like activity),HCE cells,noticeably suppressed hyperosmotic stress-dependent apoptosis
same,amount of lacrimal fluid (cotton thread test),dry eye model rat; FIG. 6,increasing the amount of lacrimal fluid
same,injury of the corneal surface (fluorescein scores),dry eye model rat; FIG. 7,suppressed injury of the corneal surface
same,amount of expression of mucin (muc1 and muc16 messenger RNAs relative to actin messenger RNA),[3],increases the amount of expression of mucin

# From US20210206773A1, “DRUG FOR TREATING DISORDERS OF CORNEAL EPITHELIUM” (EA PHARMA CO., LTD., priority 2014, published 2021)
